Assay results: patent US9247759B2, “Identification of human T2R receptors that respond to bitter compounds that elicit the bitter taste in compositions, and the use thereof in assays to identify compounds that inhibit (block) bitter taste in compositions and use thereof” (SENOMYX, INC., priority 2007, dated 2016)
Like-named read-outs stand apart in the source and are kept apart here.

Columns and labels:
hT2R3 = hT2R3 (Homo sapiens (Human), UniProt Q9NYW6); experiment: hT2R panel inhibition, transient HEK293 G16g44, agonist Chloroquine pH6.5 50 μM; format: cell-based; conditions: HEK293, compound at 25 μM
In short: (§1)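 The test compound's selectivity was profiled by challenging each transiently expressed human T2R with its activating bitter ligand at an EC80 concentration, inhibition being the reduction of receptor signalling it produced.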

hT2R4 = hT2R4 (Homo sapiens (Human), UniProt Q9NYW5); experiment: hT2R panel inhibition, transient HEK293 G16g44, agonist Chloroquine pH6.5 5 mM; format: cell-based; conditions: HEK293, compound at 25 μM
In short: as §1

hT2R7 = hT2R7 (Homo sapiens (Human), UniProt Q9NYW3); experiment: hT2R panel inhibition, transient HEK293 G16g44, agonist Chloroquine pH6.5 10 mM; format: cell-based; conditions: HEK293, compound at 25 μM; receptor activated to EC80 with agonist; read-out: inhibition of bitter receptor 7
In short: as §1

hT2R10 = hT2R10 (Homo sapiens (Human), UniProt Q9NYW0); experiment: hT2R panel inhibition, transient HEK293 G16g44, agonist Strychnine 50 μM; format: cell-based; conditions: HEK293, read-out: inhibition of bitter receptor 10, compound at 25 μM; receptor activated to EC80 with agonist
hT2R13 = hT2R13 (Homo sapiens (Human), UniProt Q9NYV9); experiment: hT2R panel inhibition, transient HEK293 G16g44, agonist Oxyphenonium 1 mM; format: cell-based; conditions: HEK293, compound at 25 μM
Method: Specifically, in order to evaluate the inhibitory selectivity of the Compound C compound, this compound was tested against 22 human T2Rs which were deorphaned by Senomyx. These receptors and the bitter ligands that activate these human T2Rs are reported in earlier patent applications which are incorporated by reference herein. These 22 human T2Rs are hT2R1, 3, 4, 5, 7, 8, 9, 10, 13, 14, 16, 44, 51, 54, 55, 61, 63, 64, 65, 67, 71 and 75. The amino acid and nucleic acid sequences of all of these T2Rs may be found in these earlier patent applications. These human T2Rs were each individually transiently transfected into HEK293 cells that stably express the promiscuous G protein G16g44 and functional assays were effected using these receptors as disclosed in these same patent applications. […] The ligands were used at EC80 concentration levels. The list of bitter ligands utilized and the tested ligand concentrations are contained in Table 5 of this example.
Relating to the foregoing, FIG. 5 contains experimental results wherein Compound C was tested with different agonist compounds. The inhibition activity is represented by the reduction of receptor activity in the presence of Compound C. […] These 13 hT2Rs are hT2R3, 7, 10, 14, 16, 44, 51, 55, 61, 63, 64, 65, and 71.

hT2R14 = hT2R14 (Homo sapiens (Human), UniProt Q9NYV8); experiment: hT2R panel inhibition, transient HEK293 G16g44, agonist Aristolochic Acid 2 μM; format: cell-based; conditions: HEK293, compound at 25 μM
In short: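 Each hT2R was transiently transfected into HEK293 cells stably expressing G16g44 and assayed functionally for inhibition of agonist response. Agonists were applied at EC80: andrographolide at 0.5 mM for hT2R8 and aristolochic acid at 2 μM for hT2R14.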

hT2R16 = hT2R16 (Homo sapiens (Human), UniProt Q9NYV7); experiment: hT2R panel inhibition, transient HEK293 G16g44, agonist Salicin 1 mM; format: cell-based; conditions: HEK293, compound at 25 μM
In short: as §1

hT2R44 = experiment: hT2R panel inhibition, transient HEK293 G16g44, agonist Denatonium 0.5 μM; format: cell-based, human; conditions: compound at 25 μM
In short: as §1

hT2R51 = hT2R51 (Homo sapiens (Human), UniProt P59533); experiment: hT2R panel inhibition, transient HEK293 G16g44, agonist Prop 2.5 μM; format: cell-based; conditions: HEK293, compound at 25 μM; receptor activated to EC80 with agonist; read-out: inhibition of bitter receptor 51
In short: as §1

hT2R54 = experiment: hT2R panel inhibition, transient HEK293 G16g44, agonist Ranitidine 5 mM; format: cell-based, human; conditions: compound at 25 μM; receptor activated to EC80 with agonist
In short: as §1

hT2R55 = experiment: hT2R panel inhibition, transient HEK293 G16g44, agonist Cinchonine 150 μM; format: cell-based, human; conditions: compound at 25 μM
In short: as §1

hT2R61 = hT2R61 (Homo sapiens (Human), UniProt P59537); experiment: hT2R panel inhibition, transient HEK293 G16g44, agonist Aristolochic Acid 25 nM; format: cell-based; conditions: HEK293, compound at 25 μM
In short: as §1

hT2R63 = experiment: hT2R panel inhibition, transient HEK293 G16g44, agonist Caffeine 1 mM or Andrographolide 100 μM; format: cell-based, human; conditions: compound at 25 μM
In short: as §1

hT2R64 = hT2R64 (Homo sapiens (Human), UniProt P59538); experiment: hT2R panel inhibition, transient HEK293 G16g44, agonist Aristolochic Acid 1 μM; format: cell-based; conditions: HEK293, compound at 25 μM
In short: as §1

hT2R65 = experiment: hT2R panel inhibition, transient HEK293 G16g44, agonist Oleuropein 1 mM; format: cell-based, human; conditions: compound at 25 μM
In short: as §1

hT2R67 = experiment: hT2R panel inhibition, transient HEK293 G16g44, agonist Andrographolide 5 μM; format: cell-based, human; conditions: compound at 25 μM
In short: as §1

hT2R71 = hT2R71 (Homo sapiens (Human), UniProt P59536); experiment: hT2R panel inhibition, transient HEK293 G16g44, agonist Picric Acid 10 μM; format: cell-based; conditions: HEK293, compound at 25 μM
In short: as §1

[1] = receptor activated to EC80 with agonist
[2] = receptor activated to EC80 with the corresponding agonist

hT2R64, sequence (P59538 whole entry): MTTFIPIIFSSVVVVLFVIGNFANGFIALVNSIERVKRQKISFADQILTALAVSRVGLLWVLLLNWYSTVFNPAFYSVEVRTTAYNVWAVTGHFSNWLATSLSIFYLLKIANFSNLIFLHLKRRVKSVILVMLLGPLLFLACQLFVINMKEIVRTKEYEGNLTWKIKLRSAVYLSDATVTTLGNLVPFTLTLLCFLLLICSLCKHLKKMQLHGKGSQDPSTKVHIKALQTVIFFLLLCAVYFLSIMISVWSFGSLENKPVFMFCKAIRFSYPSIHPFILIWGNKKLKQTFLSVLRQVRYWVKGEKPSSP
hT2R4, sequence (Q9NYW5 whole entry): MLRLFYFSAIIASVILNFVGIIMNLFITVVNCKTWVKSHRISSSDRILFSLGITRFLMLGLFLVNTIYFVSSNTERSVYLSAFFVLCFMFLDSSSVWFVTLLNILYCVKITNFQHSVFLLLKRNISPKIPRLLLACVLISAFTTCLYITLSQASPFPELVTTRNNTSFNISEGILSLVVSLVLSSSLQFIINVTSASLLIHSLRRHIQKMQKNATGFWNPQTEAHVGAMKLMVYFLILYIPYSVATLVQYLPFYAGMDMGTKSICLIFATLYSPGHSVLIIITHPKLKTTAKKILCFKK
hT2R71, sequence (P59536 whole entry): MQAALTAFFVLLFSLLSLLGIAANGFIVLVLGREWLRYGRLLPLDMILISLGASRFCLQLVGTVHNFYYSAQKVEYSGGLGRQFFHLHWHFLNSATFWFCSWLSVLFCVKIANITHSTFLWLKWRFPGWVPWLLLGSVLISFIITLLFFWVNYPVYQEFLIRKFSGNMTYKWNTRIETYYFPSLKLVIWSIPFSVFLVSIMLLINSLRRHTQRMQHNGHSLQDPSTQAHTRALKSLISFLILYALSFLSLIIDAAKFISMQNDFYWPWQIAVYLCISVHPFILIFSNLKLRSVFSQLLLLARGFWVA
hT2R61, sequence (P59537 whole entry): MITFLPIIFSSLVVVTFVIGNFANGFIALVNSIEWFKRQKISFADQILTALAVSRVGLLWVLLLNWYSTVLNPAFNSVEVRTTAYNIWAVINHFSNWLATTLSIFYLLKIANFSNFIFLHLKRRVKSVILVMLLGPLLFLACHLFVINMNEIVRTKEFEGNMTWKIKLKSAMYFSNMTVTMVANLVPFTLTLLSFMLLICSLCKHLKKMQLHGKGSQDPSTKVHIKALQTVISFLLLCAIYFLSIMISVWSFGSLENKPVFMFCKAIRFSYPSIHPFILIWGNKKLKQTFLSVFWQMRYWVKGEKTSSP
hT2R3, sequence (Q9NYW6 whole entry): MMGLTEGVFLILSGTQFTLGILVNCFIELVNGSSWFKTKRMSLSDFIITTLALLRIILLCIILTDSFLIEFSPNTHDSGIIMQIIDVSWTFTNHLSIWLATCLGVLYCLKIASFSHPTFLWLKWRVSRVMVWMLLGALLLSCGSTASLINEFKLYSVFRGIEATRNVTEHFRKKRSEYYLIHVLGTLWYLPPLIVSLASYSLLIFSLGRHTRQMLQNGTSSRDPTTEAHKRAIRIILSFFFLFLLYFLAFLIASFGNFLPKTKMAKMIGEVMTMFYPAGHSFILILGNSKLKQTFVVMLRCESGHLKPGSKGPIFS
hT2R16, sequence (Q9NYV7 whole entry): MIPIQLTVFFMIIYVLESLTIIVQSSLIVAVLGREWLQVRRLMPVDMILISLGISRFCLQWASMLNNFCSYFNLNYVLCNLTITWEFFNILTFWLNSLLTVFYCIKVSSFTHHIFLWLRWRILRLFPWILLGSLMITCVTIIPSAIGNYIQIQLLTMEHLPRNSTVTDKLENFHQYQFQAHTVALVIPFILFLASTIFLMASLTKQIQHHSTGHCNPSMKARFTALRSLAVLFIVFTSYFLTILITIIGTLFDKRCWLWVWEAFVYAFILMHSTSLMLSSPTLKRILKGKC
hT2R14, sequence (Q9NYV8 whole entry): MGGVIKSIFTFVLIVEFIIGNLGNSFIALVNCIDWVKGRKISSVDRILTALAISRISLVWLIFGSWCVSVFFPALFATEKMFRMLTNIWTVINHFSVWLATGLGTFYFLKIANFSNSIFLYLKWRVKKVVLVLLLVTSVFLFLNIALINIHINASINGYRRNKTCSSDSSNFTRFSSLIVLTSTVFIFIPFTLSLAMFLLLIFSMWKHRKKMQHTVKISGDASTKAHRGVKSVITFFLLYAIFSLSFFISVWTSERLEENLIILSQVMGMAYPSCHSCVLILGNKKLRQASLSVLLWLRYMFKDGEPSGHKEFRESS
hT2R13, sequence (Q9NYV9 whole entry): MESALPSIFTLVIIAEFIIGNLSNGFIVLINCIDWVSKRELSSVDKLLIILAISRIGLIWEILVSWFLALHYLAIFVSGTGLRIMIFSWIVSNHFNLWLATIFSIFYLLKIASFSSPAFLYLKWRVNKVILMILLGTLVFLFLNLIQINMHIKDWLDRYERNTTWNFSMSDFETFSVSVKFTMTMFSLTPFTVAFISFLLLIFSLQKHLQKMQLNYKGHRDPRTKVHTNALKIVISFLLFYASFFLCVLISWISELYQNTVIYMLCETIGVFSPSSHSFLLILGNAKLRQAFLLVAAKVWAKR
hT2R7, sequence (Q9NYW3 whole entry): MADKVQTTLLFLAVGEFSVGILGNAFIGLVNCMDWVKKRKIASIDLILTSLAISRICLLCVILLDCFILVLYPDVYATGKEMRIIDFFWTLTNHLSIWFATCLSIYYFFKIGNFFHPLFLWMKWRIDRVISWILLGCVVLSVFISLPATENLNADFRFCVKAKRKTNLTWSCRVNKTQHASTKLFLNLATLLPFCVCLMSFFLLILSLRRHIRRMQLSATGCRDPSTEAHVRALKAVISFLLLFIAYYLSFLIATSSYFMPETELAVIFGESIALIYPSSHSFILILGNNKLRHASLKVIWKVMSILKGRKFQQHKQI
hT2R51, sequence (P59533 whole entry): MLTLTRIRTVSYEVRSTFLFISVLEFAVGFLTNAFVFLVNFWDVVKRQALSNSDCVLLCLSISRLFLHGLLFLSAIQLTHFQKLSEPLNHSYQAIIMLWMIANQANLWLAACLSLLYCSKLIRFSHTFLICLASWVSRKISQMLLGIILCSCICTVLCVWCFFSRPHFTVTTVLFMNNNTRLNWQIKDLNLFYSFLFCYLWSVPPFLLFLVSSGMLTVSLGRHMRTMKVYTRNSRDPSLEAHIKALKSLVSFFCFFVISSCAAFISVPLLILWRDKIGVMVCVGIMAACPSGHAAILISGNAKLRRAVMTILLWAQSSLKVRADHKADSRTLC
hT2R10, sequence (Q9NYW0 whole entry): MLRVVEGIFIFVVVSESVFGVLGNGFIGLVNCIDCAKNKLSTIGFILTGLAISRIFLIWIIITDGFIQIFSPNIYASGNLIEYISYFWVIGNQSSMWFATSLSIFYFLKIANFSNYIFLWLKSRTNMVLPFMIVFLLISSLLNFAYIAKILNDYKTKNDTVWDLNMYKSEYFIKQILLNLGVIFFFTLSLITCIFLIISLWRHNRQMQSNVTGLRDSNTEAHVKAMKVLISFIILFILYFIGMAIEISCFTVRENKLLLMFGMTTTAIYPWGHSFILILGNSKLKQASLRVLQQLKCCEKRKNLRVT

`CCCOc1ccc(CN(Cc2ccccc2)S(=O)(=O)c2ccc(C(=O)O)cc2)cc1` [Example 5-109, 4-(N-benzyl-N-(4-propoxybenzyl)sulfamoyl)benzoic acid] was tested, and the inhibition at 25 µM (hT2R3; receptor activated to EC80 with agonist, read-out: inhibition of bitter receptor 3) was 40 to 60%, the inhibition at 25 µM (hT2R4; receptor activated to EC80 with agonist, read-out: inhibition of bitter receptor 4) was 40 to 60% and the inhibition at 25 µM (hT2R7) was 20 to 40%. The inhibition at 25 µM (hT2R10) was 40 to 60%, the inhibition at 25 µM (hT2R13; receptor activated to EC80 with agonist, read-out: inhibition of bitter receptor 13) was 20 to 40% and the inhibition at 25 µM (hT2R14; receptor activated to EC80 with agonist, read-out: inhibition of bitter receptor 14) was > 80%. The inhibition at 25 µM (hT2R16; receptor activated to EC80 with agonist, read-out: inhibition of bitter receptor 16) was 20 to 40%, the “inhibition of bitter receptor 44” value (hT2R44; [1]) was “++ (40% to 60% inhibition = ++)” and the inhibition at 25 µM (hT2R51) was 40 to 60%. For the same compound, the “inhibition of bitter receptor 54” value (hT2R54) was “+ (20% to 40% inhibition = +)”, the “inhibition of bitter receptor 55” value (hT2R55; [1]) was “++++ (80% or greater inhibition = ++++)” and the inhibition at 25 µM (hT2R61; receptor activated to EC80 with agonist, read-out: inhibition of bitter receptor 61) was 60 to 80%. The “inhibition of bitter receptor 63” value (hT2R63; [1]) was “++ (40% to 60% inhibition = ++)”, the inhibition at 25 µM (hT2R64; receptor activated to EC80 with agonist, read-out: inhibition of bitter receptor 64) was > 80% and the “inhibition of bitter receptor 65” value (hT2R65; [1]) was “+++ (60% to 80% inhibition = +++)”. The “inhibition of bitter receptor 67” value (hT2R67; [1]) was “+ (20% to 40% inhibition = +)” and the inhibition at 25 µM (hT2R71; receptor activated to EC80 with agonist, read-out: inhibition of bitter receptor 71) was 60 to 80%.
With `COc1ccc(CN(C2CCCc3ccccc32)S(=O)(=O)c2ccc(C(=O)O)cc2)cc1` (stereo not drawn) [Example 5-96, 4-(N-(4-methoxybenzyl)-N-(1,2,3,4-tetrahydronaphthalen-1-yl)sulfamoyl)benzoic acid] the inhibition at 25 µM (hT2R3; receptor activated to EC80 with the corresponding agonist, read-out: screening result against bitter receptor 3) was 20 to 40%, the inhibition at 25 µM (hT2R4; receptor activated to EC80 with the corresponding agonist, class symbols, read-out: screening result against bitter receptor 4) was 20 to 40% and the inhibition at 25 µM (hT2R13; receptor activated to EC80 with the corresponding agonist, read-out: screening result against bitter receptor 13) was 20 to 40%. The inhibition at 25 µM (hT2R14; receptor activated to EC80 with the corresponding agonist, read-out: screening result against bitter receptor 14) was > 80%, the inhibition at 25 µM (hT2R16; receptor activated to EC80 with the corresponding agonist, read-out: screening result against bitter receptor 16) was 20 to 40% and the “screening result against bitter receptor 44” value (hT2R44; [2]) was “+++ (60% to 80% inhibition = +++)”. The “screening result against bitter receptor 55” value (hT2R55; [2]) was “++++ (80% or greater inhibition = ++++)”, the inhibition at 25 µM (hT2R61; receptor activated to EC80 with the corresponding agonist, read-out: screening result against bitter receptor 61) was > 80% and the “screening result against bitter receptor 63” value (hT2R63; [2]) was “++++ (80% or greater inhibition = ++++)”. For the same compound, the inhibition at 25 µM (hT2R64; receptor activated to EC80 with the corresponding agonist, read-out: screening result against bitter receptor 64) was 60 to 80%, the “screening result against bitter receptor 65” value (hT2R65; [2]) was “++++ (80% or greater inhibition = ++++)” and the “screening result against bitter receptor 67” value (hT2R67; [2]) was “+ (20% to 40% inhibition = +)”. The inhibition at 25 µM (hT2R71; receptor activated to EC80 with the corresponding agonist, read-out: screening result against bitter receptor 71) was 40 to 60%.
